ChEMBL document CHEMBL5634117 (Eur J Med Chem, 2023)

Tests used:
MOLT-4 = test: Growth inhibition of human MOLT-4 cells assessed as reduction in cell viability measured after 48 hrs by SRB assay; type: functional
EKVX = test: Growth inhibition of human EKVX cells assessed as reduction in cell viability measured after 48 hrs by SRB assay; type: functional
HOP-62 = test: Growth inhibition of human HOP-62 cells assessed as reduction in cell viability measured after 48 hrs by SRB assay; type: functional
HOP-92 = test: Growth inhibition of human HOP-92 cells assessed as reduction in cell viability measured after 48 hrs by SRB assay; type: functional
NCI-H226 = test: Growth inhibition of human NCI-H226 cells assessed as reduction in cell viability measured after 48 hrs by SRB assay; type: functional
NCI-H23 = test: Growth inhibition of human NCI-H23 cells assessed as reduction in cell viability measured after 48 hrs by SRB assay; type: functional
NCI-H322M = test: Growth inhibition of human NCI-H322M cells assessed as reduction in cell viability measured after 48 hrs by SRB assay; type: functional
NCI-H460 = test: Growth inhibition of human NCI-H460 cells assessed as reduction in cell viability measured after 48 hrs by SRB assay; type: functional
NCI-H522 = test: Growth inhibition of human NCI-H522 cells assessed as reduction in cell viability measured after 48 hrs by SRB assay; type: functional
HCC 2998 = test: Growth inhibition of human HCC 2998 cells assessed as reduction in cell viability measured after 48 hrs by SRB assay; type: functional
HCT-15 = test: Growth inhibition of human HCT-15 cells assessed as reduction in cell viability measured after 48 hrs by SRB assay; type: functional
HT-29 = test: Growth inhibition of human HT-29 cells assessed as reduction in cell viability measured after 48 hrs by SRB assay; type: functional
SW-620 = test: Growth inhibition of human SW620 cells assessed as reduction in cell viability measured after 48 hrs by SRB assay; type: functional
SF-268 = test: Growth inhibition of human SF-268 cells assessed as reduction in cell viability measured after 48 hrs by SRB assay; type: functional
SF-295 = test: Growth inhibition of human SF-295 cells assessed as reduction in cell viability measured after 48 hrs by SRB assay; type: functional
SF-539 = test: Growth inhibition of human SF-539 cells assessed as reduction in cell viability measured after 48 hrs by SRB assay; type: functional
SNB-75 = test: Growth inhibition of human SNB-75 cells assessed as reduction in cell viability measured after 48 hrs by SRB assay; type: functional
LOX IMVI = test: Growth inhibition of human LOX IMVI cells assessed as reduction in cell viability measured after 48 hrs by SRB assay; type: functional
Malme-3M = test: Growth inhibition of human Malme-3M cells assessed as reduction in cell viability measured after 48 hrs by SRB assay; type: functional
M14 = test: Growth inhibition of human M14 cells assessed as reduction in cell viability measured after 48 hrs by SRB assay; type: functional
MDA-MB-435 = test: Growth inhibition of human MDA-MB-435 cells assessed as reduction in cell viability measured after 48 hrs by SRB assay; type: functional
SK-MEL-2 = test: Growth inhibition of human SK-MEL-2 cells assessed as reduction in cell viability measured after 48 hrs by SRB assay; type: functional
SK-MEL-28 = test: Growth inhibition of human SK-MEL-28 cells assessed as reduction in cell viability measured after 48 hrs by SRB assay; type: functional
SK-MEL-5 = test: Growth inhibition of human SK-MEL-5 cells assessed as reduction in cell viability measured after 48 hrs by SRB assay; type: functional
UACC-257 = test: Growth inhibition of human UACC-257 cells assessed as reduction in cell viability measured after 48 hrs by SRB assay; type: functional
UACC-62 = test: Growth inhibition of human UACC-62 cells assessed as reduction in cell viability measured after 48 hrs by SRB assay; type: functional
OVCAR-3 = test: Growth inhibition of human OVCAR-3 cells assessed as reduction in cell viability measured after 48 hrs by SRB assay; type: functional
OVCAR-4 = test: Growth inhibition of human OVCAR-4 cells assessed as reduction in cell viability measured after 48 hrs by SRB assay; type: functional
OVCAR-8 = test: Growth inhibition of human OVCAR-8 cells assessed as reduction in cell viability measured after 48 hrs by SRB assay; type: functional
NCI/ADR-RES = test: Growth inhibition of human NCI/ADR-RES cells assessed as reduction in cell viability measured after 48 hrs by SRB assay; type: functional
A498 = test: Growth inhibition of human A498 cells assessed as reduction in cell viability measured after 48 hrs by SRB assay; type: functional
ACHN = test: Growth inhibition of human ACHN cells assessed as reduction in cell viability measured after 48 hrs by SRB assay; type: functional
RXF 393 = test: Growth inhibition of human RXF 393 cells assessed as reduction in cell viability measured after 48 hrs by SRB assay; type: functional
SN12C = test: Growth inhibition of human SN12C cells assessed as reduction in cell viability measured after 48 hrs by SRB assay; type: functional
TK-10 = test: Growth inhibition of human TK-10 cells assessed as reduction in cell viability measured after 48 hrs by SRB assay; type: functional
UO-31 = test: Growth inhibition of human UO-31 cells assessed as reduction in cell viability measured after 48 hrs by SRB assay; type: functional
PC-3 = test: Growth inhibition of human PC-3 cells assessed as reduction in cell viability measured after 48 hrs by SRB assay; type: functional
DU-145 = test: Growth inhibition of human DU-145 cells assessed as reduction in cell viability measured after 48 hrs by SRB assay; type: functional
MCF7 = test: Growth inhibition of human MCF7 cells assessed as reduction in cell viability measured after 48 hrs by SRB assay; type: functional
MDA-MB-231 = test: Growth inhibition of human MDA-MB-231 cells assessed as reduction in cell viability measured after 48 hrs by SRB assay; type: functional
Hs-578T = test: Growth inhibition of human Hs-578T cells assessed as reduction in cell viability measured after 48 hrs by SRB assay; type: functional
T47D = test: Growth inhibition of human T47D cells assessed as reduction in cell viability measured after 48 hrs by SRB assay; type: functional
[1] = biological target: T1, Mitogen-activated protein kinase 8 (Homo sapiens, UniProt P45983); test: Inhibition of human JNK1 at 10 uM in presence of ATP relative to control
T1 sequence (P45983 whole entry): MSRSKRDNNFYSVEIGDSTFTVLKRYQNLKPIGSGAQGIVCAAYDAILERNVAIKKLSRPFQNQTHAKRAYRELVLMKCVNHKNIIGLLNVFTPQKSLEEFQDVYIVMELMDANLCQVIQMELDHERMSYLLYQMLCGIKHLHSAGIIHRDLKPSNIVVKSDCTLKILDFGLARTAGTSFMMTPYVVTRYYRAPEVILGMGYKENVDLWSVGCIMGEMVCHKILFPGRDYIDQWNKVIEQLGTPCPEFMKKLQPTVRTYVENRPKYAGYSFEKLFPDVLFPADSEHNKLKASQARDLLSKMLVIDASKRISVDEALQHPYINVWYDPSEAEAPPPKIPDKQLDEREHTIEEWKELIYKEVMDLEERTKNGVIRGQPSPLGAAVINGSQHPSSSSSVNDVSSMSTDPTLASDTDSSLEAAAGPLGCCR

[2] = biological target: Mitogen-activated protein kinase 9 (Homo sapiens, UniProt P45984); test: Inhibition of human JNK2 at 10 uM in presence of ATP relative to control
Sequence of Mitogen-activated protein kinase 9 (P45984 whole entry, looked up): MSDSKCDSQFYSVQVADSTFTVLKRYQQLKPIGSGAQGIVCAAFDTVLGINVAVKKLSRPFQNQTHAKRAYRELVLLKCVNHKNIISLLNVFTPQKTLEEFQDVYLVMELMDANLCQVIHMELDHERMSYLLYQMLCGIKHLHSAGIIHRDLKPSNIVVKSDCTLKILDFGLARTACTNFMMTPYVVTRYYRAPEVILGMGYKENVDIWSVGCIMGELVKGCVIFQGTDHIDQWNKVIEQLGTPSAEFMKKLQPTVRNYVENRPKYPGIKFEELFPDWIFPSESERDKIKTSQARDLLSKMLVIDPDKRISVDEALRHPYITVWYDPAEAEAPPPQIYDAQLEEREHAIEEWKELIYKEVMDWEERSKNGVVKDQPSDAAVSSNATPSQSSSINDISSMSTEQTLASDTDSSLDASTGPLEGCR

[3] = biological target: Mitogen-activated protein kinase 10 (Homo sapiens, UniProt P53779); test: Inhibition of human JNK3 at 10 uM in presence of ATP relative to control
Sequence of Mitogen-activated protein kinase 10 (P53779 whole entry): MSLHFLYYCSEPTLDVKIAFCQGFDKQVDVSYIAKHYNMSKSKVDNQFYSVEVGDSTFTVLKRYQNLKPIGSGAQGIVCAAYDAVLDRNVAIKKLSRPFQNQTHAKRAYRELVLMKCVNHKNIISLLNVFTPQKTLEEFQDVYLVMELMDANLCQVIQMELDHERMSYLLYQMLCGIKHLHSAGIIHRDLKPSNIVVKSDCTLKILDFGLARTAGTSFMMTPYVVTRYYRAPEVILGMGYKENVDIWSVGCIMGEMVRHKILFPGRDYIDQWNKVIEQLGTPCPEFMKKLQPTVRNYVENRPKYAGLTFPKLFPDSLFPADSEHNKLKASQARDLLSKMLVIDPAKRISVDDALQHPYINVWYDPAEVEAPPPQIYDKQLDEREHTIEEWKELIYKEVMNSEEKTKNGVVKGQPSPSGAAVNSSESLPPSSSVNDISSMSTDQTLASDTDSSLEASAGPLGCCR

[4] = biological target: T1, Mitogen-activated protein kinase 8; test: Inhibition of human JNK1 in presence of ATP

Structure (SMILES): CC(C)(C)n1cc(-c2ccnc(NCCCNS(=O)(=O)c3cccc4ccccc34)c2)c(-c2cccc(O)c2)n1
- GI50 (MOLT-4): 2000 nM
- GI50 (EKVX): 2130 nM
- GI50 (HOP-62): 1830 nM
- GI50 (HOP-92): 1710 nM
- GI50 (NCI-H226): 1970 nM
- GI50 (NCI-H23): 1780 nM
- GI50 (NCI-H322M): 2660 nM
- GI50 (NCI-H460): 1930 nM
- GI50 (NCI-H522): 1990 nM
- GI50 (HCC 2998): 1870 nM
- GI50 (HCT-15): 1530 nM
- GI50 (HT-29): 1270 nM
- GI50 (SW-620): 1810 nM
- GI50 (SF-268): 2770 nM
- GI50 (SF-295): 1800 nM
- GI50 (SF-539): 1830 nM
- GI50 (SNB-75): 1880 nM
- GI50 (LOX IMVI): 1730 nM
- GI50 (Malme-3M): 1510 nM
- GI50 (M14): 1680 nM
- GI50 (MDA-MB-435): 1760 nM
- GI50 (SK-MEL-2): 1880 nM
- GI50 (SK-MEL-28): 1670 nM
- GI50 (SK-MEL-5): 1520 nM
- GI50 (UACC-257): 2070 nM
- GI50 (UACC-62): 1670 nM
- GI50 (OVCAR-3): 2060 nM
- GI50 (OVCAR-4): 1920 nM
- GI50 (OVCAR-8): 2380 nM
- GI50 (NCI/ADR-RES): 1850 nM
- GI50 (A498): 1370 nM
- GI50 (ACHN): 2700 nM
- GI50 (RXF 393): 1520 nM
- GI50 (SN12C): 1730 nM
- GI50 (TK-10): 2850 nM
- GI50 (UO-31): 2260 nM
- GI50 (PC-3): 1850 nM
- GI50 (DU-145): 2650 nM
- GI50 (MCF7): 1910 nM
- GI50 (MDA-MB-231): 2320 nM
- GI50 (Hs-578T): 1890 nM
- GI50 (T47D): 2220 nM
- inhibition [1]: 100%
- inhibition [2]: 99.1%
- inhibition [3]: 98.7%
- IC50 [4]: 80.3 nM

Structure (SMILES): CC(C)(C)n1cc(-c2ccnc(NCCCNS(=O)(=O)c3ccc(C(F)(F)F)cc3)c2)c(-c2cccc(O)c2)n1
- GI50 (MOLT-4): 2330 nM
- GI50 (EKVX): 1820 nM
- GI50 (HOP-62): 1930 nM
- GI50 (HOP-92): 1600 nM
- GI50 (NCI-H226): 2350 nM
- GI50 (NCI-H23): 1670 nM
- GI50 (NCI-H322M): 2070 nM
- GI50 (NCI-H460): 1860 nM
- GI50 (NCI-H522): 1990 nM
- GI50 (HCC 2998): 1820 nM
- GI50 (HCT-15): 1470 nM
- GI50 (HT-29): 1450 nM
- GI50 (SW-620): 1890 nM
- GI50 (SF-268): 1750 nM
- GI50 (SF-295): 1690 nM
- GI50 (SF-539): 1650 nM
- GI50 (SNB-75): 1940 nM
- GI50 (LOX IMVI): 1720 nM
- GI50 (Malme-3M): 1720 nM
- GI50 (M14): 2000 nM
- GI50 (MDA-MB-435): 1810 nM
- GI50 (SK-MEL-2): 2100 nM
- GI50 (SK-MEL-28): 1750 nM
- GI50 (SK-MEL-5): 1600 nM
- GI50 (UACC-257): 2070 nM
- GI50 (UACC-62): 1690 nM
- GI50 (OVCAR-3): 1960 nM
- GI50 (OVCAR-4): 2290 nM
- GI50 (OVCAR-8): 2460 nM
- GI50 (NCI/ADR-RES): 2070 nM
- GI50 (A498): 1540 nM
- GI50 (ACHN): 1880 nM
- GI50 (RXF 393): 1460 nM
- GI50 (SN12C): 1610 nM
- GI50 (TK-10): 2310 nM
- GI50 (UO-31): 1580 nM
- GI50 (PC-3): 1640 nM
- GI50 (DU-145): 1940 nM
- GI50 (MCF7): 1780 nM
- GI50 (MDA-MB-231): 2130 nM
- GI50 (Hs-578T): 1980 nM
- GI50 (T47D): 2240 nM
- inhibition [1]: 99.5%
- inhibition [2]: 98.7%
- inhibition [3]: 98.6%
- IC50 [4]: 142 nM

Structure (SMILES): O=C1c2ccccc2-c2n[nH]c3cccc1c23
- GI50 (MOLT-4): 20400 nM
- GI50 (EKVX): 20000 nM
- GI50 (HOP-62): 69300 nM
- GI50 (HOP-92): 37600 nM
- GI50 (NCI-H226): 22900 nM
- GI50 (NCI-H23): 23800 nM
- GI50 (NCI-H322M): 25000 nM
- GI50 (NCI-H460): 9860 nM
- GI50 (NCI-H522): 12200 nM
- GI50 (HCC 2998): 9620 nM
- GI50 (HCT-15): 8040 nM
- GI50 (HT-29): 25900 nM
- GI50 (SW-620): 10900 nM
- GI50 (SF-268): 18400 nM
- GI50 (SF-295): 22500 nM
- GI50 (SF-539): 32200 nM
- GI50 (SNB-75): 16900 nM
- GI50 (Malme-3M): 16400 nM
- GI50 (M14): 100000 nM
- GI50 (MDA-MB-435): 12800 nM
- GI50 (SK-MEL-2): 29000 nM
- GI50 (SK-MEL-28): 37500 nM
- GI50 (SK-MEL-5): 14600 nM
- GI50 (UACC-257): 29500 nM
- GI50 (UACC-62): 14600 nM
- GI50 (OVCAR-3): 15300 nM
- GI50 (OVCAR-4): 31900 nM
- GI50 (OVCAR-8): 22000 nM
- GI50 (NCI/ADR-RES): 22600 nM
- GI50 (A498): 7030 nM
- GI50 (ACHN): 6640 nM
- GI50 (RXF 393): 20800 nM
- GI50 (SN12C): 14800 nM
- GI50 (TK-10): 5930 nM
- GI50 (UO-31): 10500 nM
- GI50 (PC-3): 23300 nM
- GI50 (DU-145): 28200 nM
- GI50 (MCF7): 49000 nM
- GI50 (MDA-MB-231): 65300 nM
- GI50 (Hs-578T): 55100 nM
- GI50 (T47D): > 100000 nM
